Assay results as given in patent US8415376B2, “Inhibitors of PI3 kinase” (Amgen Inc., priority 2008, dated 2013).

What was measured:
PI3Kα [1] = molecular target: T1, PI3Kα (Homo sapiens, UniProt P42336); assay: In vitro PI3K AlphaScreen assay; format: biochemical; details: average if run more than once
T1 construct: Full length p110 subunits of PI3K α, β and δ, N-terminally labeled with polyHis tag; polyHis (N); made in house; host or cells: Sf9 insect cells (baculovirus)
Protocol: In Vitro PI3K Alphascreen® Assay
The PI3K AlphaScreen® assay (PerkinElmer, Waltham, Mass.) measures the activity of a panel of four phosphoinositide 3-kinases: PI3Kα, PI3Kβ, PI3Kγ, and PI3Kδ. Each of these enzymes phosphorylates the 3′-hydroxyl group on phosphatidylinositiol (4,5)-bisphosphate (PIP2) to produce phosphatidylinositol (3,4,5)-trisphosphate (PIP3). This phosphorylation activity is measured using a GST-tagged PIP3 binding protein (Echelon Biosciences, Salt Lake City, Utah), an anti-GST-tagged Acceptor bead, and streptavidin-Donor bead. […] In the absence of this interaction, proximity of the Donor and Acceptor beads is decreased, producing a loss of luminescent signal which is inversely proportional to PI3K activity.
The enzyme reaction buffer is made using sterile water (Baxter, Deerfield, Ill.) and 50 mM Tris HCl pH 7, 14 mM MgCl2, 2 mM sodium cholate, and 100 mM NaCl. 2 mM DTT is added fresh the day of the experiment. The AlphaScreen® reaction buffer is made using sterile water and 10 mM Tris HCl pH 7.5, 150 mM NaCl, 0.10% Tween 20, and 30 mM EDTA. 1 mM DTT is added fresh the day of the experiment.
The source plates for this assay are 384-well Greiner clear polypropylene plates containing test compounds at 5mM and diluted 1:2 over 22 points. […] Source plates are replicated into 384-well Optiplates (PerkinElmer, Waltham, Mass.), 0.5 μL/well, to make assay-ready plates.
The different PI3K isoforms are each diluted in enzyme reaction buffer to 2× working solutions. […] Two different 2× substrate solutions are made in enzyme reaction buffer. In one solution, PI(4,5)P2 (Echelon Biosciences, Salt Lake City, Utah) is diluted to 10 μM and ATP is diluted to 20 μM. This solution is used in the assays testing PI3Kα and PI3Kβ. In a second solution, PI(4,5)P2 is diluted to 10 μM and ATP is diluted to 8 μM. This solution used in the assays testing PI3Kγ and PI3Kδ.
The AlphaScreen® reaction solutions are made using beads from the anti-GST AlphaScreen® kit (PerkinElmer, Waltham, Mass.). Two solutions are made in Alphascreen reaction buffer to 4× working concentrations. In one solution, biotinylated-IP4 (Echelon Biosciences, Salt Lake City, Utah) is diluted to 40 nM and streptavadin-Donor Beads are diluted to 80 μg/mL. In the second solution, PIP3-binding protein (Echelon Biosciences, Salt Lake City, Utah) is diluted to 40 nM and anti-GST-Acceptor Beads are diluted to 80 μg/mL. 10 μL/well of enzyme reaction buffer is added to Column 24 of the assay ready plates in place of enzyme. This is done for plates in the PI3Kα, β, and 67 assays.
Using a 384-well dispensing Multidrop (Titertek, Huntsville, Ala.), 10 μL/well of 2× enzyme (PI3Kα, β, δ) is added to Columns 1-23 of the appropriate assay ready plates (for PI3Kγ 10 μL is added to Columns 1-24). 10 μL/well of the appropriate substrate solution (the solution with 20 μM ATP for PI3Kα and β assays, and the solution with 8 μM ATP for PI3Kγ and δ assays) is then added to Columns 1-24 of the plates. Plates are then incubated at room temperature for 20 minutes.
In the dark, 10 μL/well of the Donor Bead solution is added to Columns 1-24 of the plates to quench the enzyme reaction. The plates are incubated at room temperature for 30 minutes. Still in the dark, 10 μL/well of the Acceptor Bead solution is also added to Columns 1-24 of the plates. The plates are then incubated in the dark for 1.5 hours. The plates are read on an Envision Multilabel Plate Reader (PerkinElmer, Waltham, Mass.) with a 680 nm excitation filter and a 520-620 nm emission filter.

mTOR = molecular target: T2, mTOR (Homo sapiens, UniProt P42345); assay: In vitro mTOR assay (Lanthascreen); format: biochemical; details: average if run more than once
T2 construct: purchased Invitrogen (Carlsbad, Calif.)
T2 sequence (P42345 1360-2549 limits assumed): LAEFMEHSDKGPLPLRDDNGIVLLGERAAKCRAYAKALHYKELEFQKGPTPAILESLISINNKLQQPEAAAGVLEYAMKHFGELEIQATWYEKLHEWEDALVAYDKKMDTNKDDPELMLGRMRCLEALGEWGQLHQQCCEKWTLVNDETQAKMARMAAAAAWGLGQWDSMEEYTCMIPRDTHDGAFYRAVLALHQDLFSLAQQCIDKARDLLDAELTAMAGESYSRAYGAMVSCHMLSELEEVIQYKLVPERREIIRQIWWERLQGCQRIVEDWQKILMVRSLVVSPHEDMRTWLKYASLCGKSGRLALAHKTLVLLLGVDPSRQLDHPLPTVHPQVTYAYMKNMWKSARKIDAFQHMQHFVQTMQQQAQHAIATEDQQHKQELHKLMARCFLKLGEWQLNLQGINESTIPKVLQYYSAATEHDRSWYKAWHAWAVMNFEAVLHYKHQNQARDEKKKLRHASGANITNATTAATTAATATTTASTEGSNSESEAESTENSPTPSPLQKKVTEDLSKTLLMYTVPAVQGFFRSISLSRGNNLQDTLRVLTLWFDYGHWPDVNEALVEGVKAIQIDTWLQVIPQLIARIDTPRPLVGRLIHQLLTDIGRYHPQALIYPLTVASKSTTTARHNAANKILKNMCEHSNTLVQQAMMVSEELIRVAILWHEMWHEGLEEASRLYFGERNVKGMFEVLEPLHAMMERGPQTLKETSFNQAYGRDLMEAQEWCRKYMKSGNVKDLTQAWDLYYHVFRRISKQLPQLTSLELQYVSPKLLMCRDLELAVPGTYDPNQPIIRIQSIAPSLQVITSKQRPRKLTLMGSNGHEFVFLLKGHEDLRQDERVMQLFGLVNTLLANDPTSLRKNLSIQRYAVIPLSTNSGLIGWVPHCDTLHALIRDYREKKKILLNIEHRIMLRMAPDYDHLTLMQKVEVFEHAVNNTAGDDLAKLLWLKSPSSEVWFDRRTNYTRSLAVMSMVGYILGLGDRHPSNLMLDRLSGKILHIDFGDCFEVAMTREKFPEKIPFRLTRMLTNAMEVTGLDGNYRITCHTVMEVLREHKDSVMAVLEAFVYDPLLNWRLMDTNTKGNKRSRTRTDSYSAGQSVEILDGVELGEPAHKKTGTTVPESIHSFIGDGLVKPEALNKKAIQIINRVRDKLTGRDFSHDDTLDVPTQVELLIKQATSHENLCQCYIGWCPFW
Excerpt: The Invitrogen (Carlsbad, Calif.) mammalian target of rapamycin (mTOR) Lanthascreen assay can be used to quantitate mTOR kinase activity in an in vitro setting. Active mTOR phosphorylates eukaryotic translation initiation factor 4E binding protein 1 (4E-BP1) on residue threonine 46. This phosphorylation event can be detected with a phospho-specific terbium (Tb) labeled Ab, in turn bringing the Tb label in close proximity to the GFP tagged 4E-BP1 and allowing for time-resolved fluorescence resonance energy transfer (TR-FRET), which correlates 4E-BP1 phosphorylation levels with mTOR kinase activity.
Enzyme reaction buffer can be prepared in deionized water containing 50 mM HEPES (pH 7.5), 0.01% Polysorbate 20, 1 mM EGTA, and 10 mM MnCl2.
Dilutions of the compound to be tested can be prepared in 96-well polypropylene plates (Fisher Scientific, Waltham, Mass.). One row represents a 10-point dose of compound diluted 1:3 in enzyme reaction buffer and 20% dimethyl sulfoxide (DMSO). The top concentration for all compounds is 36 μM. Wells 6 and 12 can serve as the no compound (DMSO only) and high compound controls.
An mTOR substrate solution can prepared in enzyme reaction buffer containing 1600 nM green fluorescent protein tagged eukaryotic translation initiation factor 4E binding protein 1 (GFP-4E-BP1) (Invitrogen, Carlsbad, Calif.) and 28 uM adenosine triphosphate (ATP) (Calbiochem, Gibbstown, N.J.).
mTOR enzyme (Invitrogen, Carlsbad, Calif.) can be diluted in enzyme reaction buffer to a working concentration of 100 ng/mL.
The enzyme assay can be run in 384 well low volume assay plates (Corning, Corning, N.Y.). 2.5 uL of substrate solution containing GFP-4E-BP1 and ATP can be added to appropriate wells in the assay plate followed by 2.5 μL of compound dilutions. 5 μL of appropriately diluted mTOR enzyme can be added and the reaction allowed to proceed for 1 hour at room temperature. Final reagent concentrations in the enzyme assay are 50 ng/mL mTOR, 400 nM GFP-4E-BP1, and 7 μM ATP.
The enzyme assay can be terminated upon the addition of 10 μL of 20 mM EDTA and 4 nM Tb-labeled anti-phospho-4E-BP1 [T46] antibody (Invitrogen, Carlsbad, Calif.). The assay plate can then be incubated at room temperature for 1 hour and results read on a Tecan Safire II plate reader (Tecan, Männedorf, Switzerland).

[2] = tested on: phosphorylation of Akt at Serine 473; assay: pAkt AlphaScreen (U87 cell); format: cell-based; details: Homo sapiens, U-87 MG; U87 MG cells, pAkt Ser473; average
Protocol: pAkt Alphascreen (U87 Cell)
The pAkt AlphaScreen® assay (PerkinElmer, Waltham, Mass.) determines whether there is phosphorylation of Akt at Serine 473 by recruitment of a phosphospecific antibody. This assay was performed using U87 MG cells. The U87 growth media consists of MEM (Gibco, Carlsbad, Calif.) supplemented with 10% FBS (Gibco,), 1× Non-Essential Amino Acids (Gibco,) and 1× Penicillin/Streptomycin/Glutamine (Gibco). The cells were maintained weekly using 0.05% Trypsin (Gibco) and replated in 150 mm TC-Treated Culture Dishes (Corning, Corning, N.Y.).
The first day of the assay, the adherent cells were trypsinized, media was added to the loose cells and cells were mixed to a homogenous mixture. 0.5 ml of the homogenous mixture was counted on the Beckman Coulter® Vi-CELL™ XR (Fullerton, Calif.). 50 frames of cells were counted and the number of viable cells was determined. The cells were then diluted to 0.25 million cells per ml, and centrifuged at 200 rcf for 5 minutes. The media was removed and the cells were reconstituted in fresh media for plating. The cells were plated at 20 μl per well on the PerkinElmer® FlexDrop PLUS in Low Volume 384 Well White Tissue Culture Plates (Corning) with a final cell density of 5K cells per well. The plates were incubated overnight at 37° Celsius, 5% CO2.
On the second day, the compound plates were prepared, the cells were treated with compound and the pAkt reaction mix was added to the cell lysate. 384 well compound plates were prepared containing 1 μl of compound per well starting at 5 mM and diluted 1:2 across the row, resulting in a 22 well serial dilution. 39 μl of growth media was added to the compound plate in rows 1-22 using the PerkinElmer® FlexDrop PLUS resulting in a DMSO concentration of 2.5%. The cell plates and diluted compound plates were put onto the VELOCITY11™ VPREP™ 384 ST where the compound plate was mixed and 5 μl of serially diluted compound or controls was added to the cell plate. The final concentration of the compounds was 25 μM serially diluted to 11.9 pM in 0.5% DMSO. The cell plates were then incubated with compound for two hours at 37° Celsius, 5% CO2. After two hours, the media in the cell plates was aspirated using the BioTek® ELx405HT plate washer (Winooski, Vt.) removing the majority of media and compound without disturbing the adherent U87 cells. The following assay reagents are components of the SureFire® Akt (Ser 473) Phosphorylation 50K Point Kit (TGR BioSciences, Adelaide, Austalia) and an IgG Detection Kit (PerkinElmer, Waltham, Mass.). 5 μl of 1× Lysis Buffer was added to each well using the PerkinElmer® FlexDrop PLUS. The plates were then incubated at room temperature on a shaker for ten minutes. The AlphaScreen® reaction was prepared under low light conditions (subdued or green light) including p-Akt (Ser 473) Reaction Buffer, Dilution Buffer, Activation Buffer, Acceptor Beads and Donor Beads at a ratio of 40:20:10:1:1 respectively. The AlphaScreen® reaction was added to the cell lysate at 6 μl per well using the PerkinElmer® FlexDrop PLUS. The plates were placed in a humid environment to reduce edge effects and incubated overnight at room temperature with restricted air flow in the dark.
On the final day of the experiment, the plates were read on the PerkinElmer® EnVision™ 2103 Multilable Reader using the standard AlphaScreen® readout. The POC is calculated and the data is analyzed to report the IC50 IP for pAkt at Serine 473.
Activity data for the compounds tested in the PI3K cell based Akt assay is provided in Table 2 under the column heading U87

PI3Kα [3] = molecular target: T1, PI3Kα; assay: In vitro PI3 kinase enzyme assay (PI3K ATP loss), alpha; format: biochemical; details: average if run more than once; read-out: ATP Loss (PBKα) IC50 μM (Avg)
Protocol: (§1) Full length p110 subunits of PI3K α, β and δ, N-terminally labeled with polyHis tag, can be co-expressed with p85 with Baculo virus expression vectors in sf9 insect cells. P110/p85 heterodimers can be purified by sequential Ni-NTA, Q-HP, Superdex-100 chromatography. Purified α, β and δ isozymes can be stored at −20° C. in 20 mM Tris, pH 8, 0.2M NaCl, 50% glycerol, 5 mM DTT, 2 mM Na cholate. […] The γ isozyme can be purified by sequential Ni-NTA, Superdex-200, Q-HP chromatography. The γ isozyme can be stored frozen at −80° C. in NaH2PO4, pH 8, 0.2M NaCl, 1% ethylene glycol, 2 mM β-mercaptoethanol.
(§2) In Vitro PI3 Kinase Enzyme Assays (PI3K Atploss)
(§3) PI3K enzyme assays (alpha, beta, delta and gamma) can be performed in 25 μL with the above final concentrations of components in white polyproplyene plates. Phosphatidyl inositol phosphoacceptor, PtdIns(4,5)P2 (eg. P4508) can be obtained from Echelon Biosciences, Salt Lake City, Utah. […] Test compounds can be dissolved in DMSO and diluted with three-fold serial dilutions. The compound in DMSO (1 μL) may be added per test well, and the inhibition relative to reactions containing no compound, with and without enzyme can be determined After assay incubation at RT, the reaction can be stopped and residual ATP can be determined by addition of an equal volume of a commercial ATP bioluminescence kit (Perkin Elmer EasyLite, Perkin Elmer, Waltham, Mass.) according to the manufacturer's instructions, and detected using an Analyst GT luminometer.

PI3Kβ = molecular target: T3, PI3Kβ (Homo sapiens, UniProt P42338); assay: In vitro PI3 kinase enzyme assay (PI3K ATP loss), beta; format: biochemical; details: average if run more than once
T3 construct: Full length p110 subunits of PI3K α, β and δ, N-terminally labeled with polyHis tag; polyHis (N); made in house; host or cells: Sf9 insect cells (baculovirus)
T3 sequence (P42338 whole entry): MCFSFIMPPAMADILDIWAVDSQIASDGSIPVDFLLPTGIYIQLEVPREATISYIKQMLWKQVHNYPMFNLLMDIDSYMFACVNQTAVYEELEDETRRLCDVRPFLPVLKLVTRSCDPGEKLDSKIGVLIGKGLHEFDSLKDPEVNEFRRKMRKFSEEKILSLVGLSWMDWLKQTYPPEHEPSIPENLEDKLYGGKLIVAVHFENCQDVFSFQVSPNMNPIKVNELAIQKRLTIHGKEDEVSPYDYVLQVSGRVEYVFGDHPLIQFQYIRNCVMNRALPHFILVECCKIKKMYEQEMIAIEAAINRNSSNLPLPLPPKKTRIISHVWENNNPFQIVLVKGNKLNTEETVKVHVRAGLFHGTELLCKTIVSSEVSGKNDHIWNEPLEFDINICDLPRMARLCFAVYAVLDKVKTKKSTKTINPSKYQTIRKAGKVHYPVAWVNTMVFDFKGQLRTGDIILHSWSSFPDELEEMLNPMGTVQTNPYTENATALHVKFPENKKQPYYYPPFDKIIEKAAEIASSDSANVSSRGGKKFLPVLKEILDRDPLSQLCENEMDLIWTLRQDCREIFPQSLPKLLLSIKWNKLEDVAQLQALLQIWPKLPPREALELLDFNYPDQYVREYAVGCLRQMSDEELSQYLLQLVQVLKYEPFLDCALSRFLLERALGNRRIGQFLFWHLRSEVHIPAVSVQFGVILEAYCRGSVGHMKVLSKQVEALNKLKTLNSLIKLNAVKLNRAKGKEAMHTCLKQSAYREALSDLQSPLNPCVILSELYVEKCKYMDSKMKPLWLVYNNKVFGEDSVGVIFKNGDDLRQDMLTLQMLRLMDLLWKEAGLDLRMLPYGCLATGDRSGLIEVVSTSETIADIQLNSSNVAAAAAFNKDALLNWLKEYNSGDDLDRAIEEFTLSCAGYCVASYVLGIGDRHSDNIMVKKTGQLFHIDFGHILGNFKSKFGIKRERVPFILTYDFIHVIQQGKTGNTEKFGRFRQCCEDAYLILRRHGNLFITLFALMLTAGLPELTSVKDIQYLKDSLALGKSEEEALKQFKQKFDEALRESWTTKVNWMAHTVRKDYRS
T3 sequence (P27986 whole entry partner): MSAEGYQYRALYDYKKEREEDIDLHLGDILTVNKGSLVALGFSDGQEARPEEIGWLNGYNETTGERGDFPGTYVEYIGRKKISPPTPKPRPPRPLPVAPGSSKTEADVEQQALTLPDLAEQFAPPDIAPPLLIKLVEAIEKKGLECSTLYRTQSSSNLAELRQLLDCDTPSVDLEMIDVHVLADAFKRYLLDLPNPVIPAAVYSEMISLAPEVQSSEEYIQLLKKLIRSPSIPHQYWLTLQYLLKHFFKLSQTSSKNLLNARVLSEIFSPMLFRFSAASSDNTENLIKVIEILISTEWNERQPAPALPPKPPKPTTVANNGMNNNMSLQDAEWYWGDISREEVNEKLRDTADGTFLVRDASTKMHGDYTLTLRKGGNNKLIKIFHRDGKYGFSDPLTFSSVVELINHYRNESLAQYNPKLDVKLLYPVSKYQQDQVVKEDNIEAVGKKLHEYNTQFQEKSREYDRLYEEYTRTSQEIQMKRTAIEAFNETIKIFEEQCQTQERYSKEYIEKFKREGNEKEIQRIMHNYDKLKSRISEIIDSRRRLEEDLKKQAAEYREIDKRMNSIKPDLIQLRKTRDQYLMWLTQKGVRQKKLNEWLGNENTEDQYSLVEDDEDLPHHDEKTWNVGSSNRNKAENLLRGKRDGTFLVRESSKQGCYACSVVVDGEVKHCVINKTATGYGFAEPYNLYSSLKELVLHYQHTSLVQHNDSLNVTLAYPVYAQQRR
Protocol: as §1, §2, §3

[4] = tested on: phosphorylation of Akt at Ser473; assay: Cell-based phospho-Akt Ser473 assay (HCT116 cell); details: HCT 116 human colon carcinoma cells, IGF-1 stimulated; average
Outline: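 HCT116 human colon carcinoma cells, 16,000/well, were treated with compounds in a 10-point 3-fold series for 2 h at 37 °C in McCoy's with 0.1% BSA. They were then stimulated with IGF-1 at 100 ng/ml for 15 min. Phospho-Akt Ser473 in lysates was measured by MSD electrochemiluminescent sandwich immunoassay, and IC50 came from dose-response.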

T1 sequence (P42336 whole entry): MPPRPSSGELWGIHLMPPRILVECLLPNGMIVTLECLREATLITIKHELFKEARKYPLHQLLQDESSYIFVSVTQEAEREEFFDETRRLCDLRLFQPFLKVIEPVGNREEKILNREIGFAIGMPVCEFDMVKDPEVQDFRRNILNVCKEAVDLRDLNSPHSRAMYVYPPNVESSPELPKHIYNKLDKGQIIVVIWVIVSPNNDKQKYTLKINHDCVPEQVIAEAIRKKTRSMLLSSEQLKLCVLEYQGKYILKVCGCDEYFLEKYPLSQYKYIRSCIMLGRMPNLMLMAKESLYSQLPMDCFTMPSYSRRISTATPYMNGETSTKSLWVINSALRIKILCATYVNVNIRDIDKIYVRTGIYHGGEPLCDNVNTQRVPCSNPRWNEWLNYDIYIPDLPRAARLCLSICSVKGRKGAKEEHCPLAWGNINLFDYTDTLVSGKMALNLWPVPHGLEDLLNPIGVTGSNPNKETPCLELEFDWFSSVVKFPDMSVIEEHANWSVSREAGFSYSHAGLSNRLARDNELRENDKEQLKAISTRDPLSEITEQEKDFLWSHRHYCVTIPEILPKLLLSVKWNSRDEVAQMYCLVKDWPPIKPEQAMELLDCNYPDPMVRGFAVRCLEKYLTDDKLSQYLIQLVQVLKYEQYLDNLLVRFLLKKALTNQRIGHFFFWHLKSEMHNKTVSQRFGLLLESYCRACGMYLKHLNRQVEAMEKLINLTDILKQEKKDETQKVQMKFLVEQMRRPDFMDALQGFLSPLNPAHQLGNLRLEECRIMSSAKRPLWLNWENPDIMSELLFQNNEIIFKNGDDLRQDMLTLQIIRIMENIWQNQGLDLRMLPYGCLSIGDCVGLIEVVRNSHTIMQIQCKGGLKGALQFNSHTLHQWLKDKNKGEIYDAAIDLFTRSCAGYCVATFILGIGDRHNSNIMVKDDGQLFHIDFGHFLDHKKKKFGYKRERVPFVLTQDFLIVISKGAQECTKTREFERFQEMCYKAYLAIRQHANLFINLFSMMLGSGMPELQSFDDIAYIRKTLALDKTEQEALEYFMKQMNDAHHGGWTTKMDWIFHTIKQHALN
T1 sequence (P27986 whole entry partner): as the sequence (P27986 whole entry partner) above

Compound	Ki (PI3Kα [1])	IC50 (mTOR)	IC50 [2]	IC50 (PI3Kα [3])	IC50 (PI3Kβ)	IC50 [4]
COCC(C)Nc1ccnc2ccc(-c3cnc(Cl)c(NS(=O)(=O)c4ccc(F)cc4)c3)cc12 (centres unmarked) [Example 99, N-(2-chloro-5-(4-((2-methoxy-1-methylethyl)amino)-6-quinolinyl)-3-pyridinyl)-4-fluorobenzenesulfonamide]	0.121 µM	2.39 µM	–	–	–	–
CS(=O)(=O)Nc1cc(-c2ccc3nccc(C4CCOCC4)c3c2)cnc1Cl [Example 114, N-(2-Chloro-5-(4-(tetrahydro-2H-pyran-4-yl)quinolin-6-yl)pyridin-3-yl)methanesulfonamide]	–	0.0063 µM	0.0254 µM	–	–	–
O=S1(=O)CCC(Oc2ccnc3ccc(-c4cnc(Cl)c(NS(=O)(=O)c5ccc(F)cc5)c4)cc23)C1 (centres unmarked) [Example 115, N-(2-Chloro-5-(4-(tetrahydrothiophen-1,1-dioxide-3-yloxy)quinolin-6-yl)pyridin-3-yl)-4-fluorobenzenesulfonamide]	–	0.0126 µM	0.194 µM	–	–	–
COc1ccc(S(=O)(=O)Nc2cc(-c3ccc4c(c3)OCCO4)cnc2Cl)cc1 [Example 127, N-(2-Chloro-5-(2,3-dihydrobenzo[b][1,4]dioxin-6-yl)pyridin-3-yl)-4-methoxybenzenesulfonamide]	0.0273 µM	0.0651 µM	–	–	–	–
O=S(=O)(Nc1cc(N2CCc3ncccc3C2)cnc1Cl)c1ccc(F)cc1 [Example 135, N-(2-Chloro-5-(7,8-dihydro-1,6-naphthyridin-6(5H)-yl)pyridin-3-yl)-4-fluorobenzenesulfonamide]	0.0638 µM	0.218 µM	–	–	–	–
O=S(=O)(Nc1cc(-c2ccc3nccc(-c4cccnc4)c3c2)cnc1Cl)c1ccc(F)cc1 [Example 93, N-(2-chloro-5-(4-(3-pyridinyl)-6-quinolinyl)-3-pyridinyl)-4-fluorobenzenesulfonamide]	–	0.0016 µM	0.0119 µM	–	–	–
O=S(=O)(Nc1cc(-c2ccc3ncc(-c4ccncc4)nc3c2)cnc1Cl)c1ccc(F)cc1 [Example 121, N-(2-Chloro-5-(3-(pyridin-4-yl)quinoxalin-6-yl)pyridin-3-yl)-4-fluorobenzenesulfonamide]	–	0.0057 µM	0.031 µM	–	–	–
O=C1COc2ccc(-c3cnc(Cl)c(NS(=O)(=O)c4ccc(F)cc4)c3)cc2N1 [Example 129, N-(2-Chloro-5-(3-oxo-3,4-dihydro-2H-benzo[b][1,4]oxazin-6-yl)pyridin-3-yl)-4-fluorobenzenesulfonamide]	0.0858 µM	–	–	–	–	–
O=S(=O)(Nc1cc(-c2ccc3nccc(N4CCCC(O)CC4)c3c2)cnc1Cl)c1ccc(F)cc1 (centres unmarked) [Example 95, N-(2-chloro-5-(4-(4-hydroxy-1-azepanyl)-6-quinolinyl)-3-pyridinyl)-4-fluorobenzenesulfonamide]	0.0058 µM	0.111 µM	–	–	–	–
O=S(=O)(Nc1cc(-c2ccc3nccc(N4CCN(Cc5ccncc5)CC4)c3c2)cnc1Cl)c1ccc(F)cc1 [Example 89, N-(2-chloro-5-(4-(4-(4-pyridinylmethyl)-1-piperazinyl)-6-quinolinyl)-3-pyridinyl)-4-fluorobenzenesulfonamide]	–	0.0039 µM	0.0223 µM	–	–	–
O=S(=O)(Nc1cc(-c2ccc3nccc(OCC4CCSCC4)c3c2)cnc1Cl)c1ccc(F)cc1 [Example 100, N-(2-chloro-5-(4-(tetrahydro-2H-thiopyran-4-ylmethoxy)-6-quinolinyl)-3-pyridinyl)-4-fluorobenzenesulfonamide]	0.0012 µM	0.04 µM	–	–	–	–
O=S(=O)(Nc1cc(-c2ccc3ncc(O)cc3c2)cnc1Cl)c1ccc(F)cc1 [Example 22, N-(2-chloro-5-(3-hydroxy-6-quinolinyl)-3-pyridinyl)-4-fluorobenzenesulfonamide]	–	–	–	0.0114 µM	0.0552 µM	0.654 µM
CC1CN(c2ccnc3ccc(-c4cnc(Cl)c(NS(=O)(=O)c5ccc(F)cc5)c4)cc23)CC(C)O1 (centres unmarked) [Example 30, N-(2-chloro-5-(4-(2,6-dimethyl-4-morpholinyl)-6-quinolinyl)-3-pyridinyl)-4-fluorobenzenesulfonamide]	–	–	–	0.0041 µM	0.0302 µM	0.0228 µM
O=S(=O)(Nc1cc(-c2ccc3ncc(NCCN4CCOCC4)nc3c2)cnc1Cl)c1ccc(F)cc1 [Example 91, N-(2-chloro-5-(3-((2-(4-morpholinyl)ethyl)amino)-6-quinoxalinyl)-3-pyridinyl)-4-fluorobenzenesulfonamide]	–	0.0053 µM	0.075 µM	–	–	–
CS(=O)(=O)Nc1cc(-c2ccc3nccc(N4CCOCC4)c3c2)cnc1Cl [Example 11, N-(2-chloro-5-(4-(4-morpholinyl)-6-quinolinyl)-3-pyridinyl)methanesulfonamide]	–	–	–	0.0458 µM	0.156 µM	0.0501 µM
CS(=O)(=O)Nc1cc(-c2ccc3ncccc3c2)cnc1Cl [Example 12, N-(2-chloro-5-(6-quinolinyl)-3-pyridinyl)methanesulfonamide]	–	–	–	0.0689 µM	0.365 µM	2.65 µM
COc1ccc(S(=O)(=O)Nc2cc(-c3ccc4nccc(N5CCC(OC)CC5)c4c3)cnc2Cl)cc1 [Example 50, N-(2-chloro-5-(4-(4-methoxy-1-piperidinyl)-6-quinolinyl)-3-pyridinyl)-4-methoxybenzenesulfonamide]	–	–	–	0.003 µM	0.0366 µM	0.107 µM
